Reference: ChEMBL document CHEMBL4428056 (J Med Chem, 2016)
Calls of active or inactive are those of the source. The rule behind the calls is not given here.

Experiments:
Galectin-3 [1] = target: Galectin-3 (Homo sapiens, UniProt P17931); test: Competitive binding affinity to recombinant human galectin-3 after 5 mins in presence of fluorescent probe by fluorescence polarization assay
Galectin-8 = target: T1, Galectin-8 (Homo sapiens, UniProt O00214); test: Competitive binding affinity to recombinant human galectin-8 N-terminal after 5 mins in presence of fluorescent probe 2-(fluorescein-5-yl-carbonylamino)ethyl beta-D-galactopyranosyl(1-4)-2-acetamido-2-deoxy-beta-D-glucopyranosyl(1-3)-beta-D-galactopyranosyl(1-4)-beta-D-glucopyranoside by fluorescence polarization assay
T1 sequence (O00214 whole entry): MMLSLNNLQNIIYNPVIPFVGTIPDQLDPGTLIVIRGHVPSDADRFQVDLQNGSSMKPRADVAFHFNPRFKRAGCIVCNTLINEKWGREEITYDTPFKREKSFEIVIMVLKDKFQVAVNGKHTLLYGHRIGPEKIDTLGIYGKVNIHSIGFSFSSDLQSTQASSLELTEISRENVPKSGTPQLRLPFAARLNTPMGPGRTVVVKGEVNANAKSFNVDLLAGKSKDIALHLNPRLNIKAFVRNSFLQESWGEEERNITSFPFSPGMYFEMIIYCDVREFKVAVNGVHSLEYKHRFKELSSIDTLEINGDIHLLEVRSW

Galectin-4 [2] = target: T2, Galectin-4 (Homo sapiens, UniProt P56470); test: (§1) Competitive binding affinity to recombinant human galectin-4 N-terminal after 5 mins in presence of fluorescent probe 3,3'-dideoxy-3-[4-(fluorescein-5-yl-carbonylaminomethyl)-1H-1,2,3-triazol-1-yl]-3'-(3,5-dimethoxy-benzamido)-1,1'-sulfanediyl-di-beta-D-galactopyranoside by fluorescence polarization assay
T2 sequence (P56470 whole entry): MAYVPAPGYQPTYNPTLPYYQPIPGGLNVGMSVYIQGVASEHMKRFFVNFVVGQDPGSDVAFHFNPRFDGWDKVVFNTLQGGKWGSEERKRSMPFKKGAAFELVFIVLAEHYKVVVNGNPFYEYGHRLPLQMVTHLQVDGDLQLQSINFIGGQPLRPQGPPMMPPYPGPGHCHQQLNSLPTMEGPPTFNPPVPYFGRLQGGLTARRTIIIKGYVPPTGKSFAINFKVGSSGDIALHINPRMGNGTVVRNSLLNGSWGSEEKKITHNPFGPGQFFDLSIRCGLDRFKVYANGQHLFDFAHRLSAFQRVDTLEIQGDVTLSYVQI

Galectin-4 [3] = target: T2, Galectin-4; test: Competitive binding affinity to recombinant human galectin-4 C-terminal after 5 mins in presence of fluorescent probe 2-(fluorescein-5/6-yl-carbonyl)-aminoethyl 2-acetamido-2-deoxy-alpha-D-galactopyranosyl-(1-3)-[alpha-L-fucopyranosyl-(1-2)]-beta-D-galactopyranosyl-(1-4)-beta-D-glucopyranoside by fluorescence polarization assay
Galectin-9 [4] = target: T3, Galectin-9 (Homo sapiens, UniProt O00182); test: as §1, with “galectin-9 C-terminal” for “galectin-4 N-terminal”
[5] = Solubility of the compound in DMSO at 100 mM; format: physicochemical; details: 100000 µM
Galectin-9 [6] = target: T3, Galectin-9; test: Competitive binding affinity to recombinant human galectin-9 N-terminal after 5 mins in presence of fluorescent probe 2-(fluorescein-5-yl-carbonylamino)ethyl-beta-D-galactopyranosyl(1-4)-2-acetamido-2-deoxy-beta-D-glucopyranosyl(1-3)-beta-D-galactopyranosyl(1-4)-beta-D-glucopyranoside by fluorescence polarization assay
Galectin-7 = target: T4, Galectin-7 (Mus musculus, UniProt O54974); test: Competitive binding affinity to recombinant mouse galectin-7 after 5 mins in presence of fluorescent probe beta-D-galactopyranosyl(1-4)-2- acetamido-2-deoxy-beta-D-glucopyranosyl(1-3)-beta-D-galactopyranosyl(1-4)-(N1-fluorescein-5-yl-carbonylaminomethylcarbonyl)-beta-D-glucopyranosylamine by fluorescence polarization assay
T4 sequence (O54974 whole entry): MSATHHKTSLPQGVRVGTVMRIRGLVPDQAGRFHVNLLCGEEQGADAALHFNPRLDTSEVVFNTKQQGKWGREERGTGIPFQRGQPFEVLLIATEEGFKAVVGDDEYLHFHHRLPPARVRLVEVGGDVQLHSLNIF

Mus musculus [7] = test: Effect on inflammatory score in bleomycin-induced C57/Bl6 mouse at 1 to 3.5 mg/kg administered intratracheally as 4 doses every 48 hrs commencing on day 18 of bleomycin induction measured on day 26 post last dose by Masson's trichrome staining based assay; format: functional, organism-based
Galectin-2 = target: T5, Galectin-2 (Homo sapiens, UniProt P05162); test: Competitive binding affinity to recombinant human galectin-2 after 5 mins in presence of fluorescent probe ,[…]-3-[4-(fluorescein-5-yl-carbonylaminomethyl)-1H-1,2,3-triazol-1-yl]-3'-(3,5-dimethoxy-benzamido)-1,1'-sulfanediyl-di-beta-D-galactopyranoside by fluorescence polarization assay
T5 sequence (P05162 whole entry): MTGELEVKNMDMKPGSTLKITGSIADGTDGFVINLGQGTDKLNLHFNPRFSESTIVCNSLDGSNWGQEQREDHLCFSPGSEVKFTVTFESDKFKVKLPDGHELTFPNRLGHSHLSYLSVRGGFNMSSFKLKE

Galectin-3 [8] = target: Galectin-3 (Homo sapiens, UniProt P17931, R186K); test: (§2) Competitive binding affinity to recombinant human galectin-3 R186K mutant after 5 mins in presence of fluorescent probe beta-D-galactopyranosyl(1-4)-2-acetamido-2-deoxy-beta-D-glucopyranosyl(1-3)-beta-D-galactopyranosyl(1-4)-(N1-fluorescein-5-yl-carbonylaminomethylcarbonyl)-beta-D-glucopyranosylamine by fluorescence polarization assay
Galectin-3 [9] = target: Galectin-3 (Homo sapiens, UniProt P17931, R186S); test: (§3) Competitive binding affinity to recombinant human galectin-3 R186S mutant after 5 mins in presence of fluorescent probe 2-(fluorescein-5/6-yl-carbonyl)-aminoethyl 2-acetamido-2-deoxy-alpha-D-galactopyranosyl-(1-3)-[alpha-L-fucopyranosyl-(1-2)]-beta-D-galactopyranosyl-(1-4)-beta-D-glucopyranoside by fluorescence polarization assay
Mus musculus [10] = test: Anti-fibrotic activity in C57/Bl6 mouse bleomycin-induced lung fibrosis model assessed as reduction in total lung collagen levels at 0.35 to 1 mg/kg administered intratracheally as 4 doses every 48 hrs commencing on day 18 of bleomycin induction measured on day 26 post last dose; format: functional, organism-based
Galectin-3 [11] = target: Galectin-3 (Homo sapiens, UniProt P17931, R144K); test: as §3, with “R144K” for “R186S”
Mus musculus [12] = test: (§4) Anti-fibrotic activity in C57/Bl6 mouse bleomycin-induced lung fibrosis model assessed as reduction in fibrosis score at 0.35 to 1 mg/kg administered intratracheally as 4 doses every 48 hrs commencing on day 18 of bleomycin induction measured on day 26 post last dose by Masson's trichrome staining based assay relative to control; format: functional, organism-based
Mus musculus [13] = test: Effect on inflammatory response in C57/Bl6 mouse assessed as change in bleomycin-induced total cell counts in bronchoalveolar lavage fluid at 0.35 to 3.5 mg/kg administered intratracheally as 4 doses every 48 hrs commencing on day 18 of bleomycin induction measured on day 26 post last dose; format: functional, organism-based
Mus musculus [14] = test: Anti-fibrotic activity in C57/Bl6 mouse assessed as reduction in bleomycin-induced galectin-3 levels in serum at 0.35 to 3.5 mg/kg administered intratracheally as 4 doses every 48 hrs commencing on day 18 of bleomycin induction measured on day 26 post last dose by ELISA; format: functional, organism-based
Galectin-3 [15] = target: Galectin-3 (Homo sapiens, UniProt P17931, K176L); test: as §2, with “K176L” for “R186K”
Mus musculus [16] = test: Anti-fibrotic activity in C57/Bl6 mouse assessed as reduction in bleomycin-induced galectin-3 levels in bronchoalveolar lavage fluid at 3.5 mg/kg administered intratracheally as 4 doses every 48 hrs commencing on day 18 of bleomycin induction measured on day 26 post last dose by ELISA; format: functional; parameters: scale not given: the % may be the effect or the level left
Mus musculus [17] = test: Effect on inflammatory response in C57/Bl6 mouse assessed as change in bleomycin-induced total protein levels in bronchoalveolar lavage fluid at 0.35 to 3.5 mg/kg administered intratracheally as 4 doses every 48 hrs commencing on day 18 of bleomycin induction measured on day 26 post last dose; format: functional, organism-based
Mus musculus [18] = test: Anti-fibrotic activity in C57/Bl6 mouse bleomycin-induced lung fibrosis model assessed as reduction in total lung collagen levels at 3.5 mg/kg administered intratracheally as 4 doses every 48 hrs commencing on day 18 of bleomycin induction measured on day 26 post last dose relative to control; format: functional; parameters: scale not given: the % may be the effect or the level left
Galectin-3 [19] = target: Galectin-3 (Homo sapiens, UniProt P17931, R144S); test: as §3, with “R144S” for “R186S”
Galectin-1 = Galectin-1 (Homo sapiens, UniProt P09382); test: Competitive binding affinity to recombinant human galectin-1 after 5 mins in presence of fluorescent probe 3,3'-dideoxy-3-[4-(fluorescein-5-yl-carbonylaminomethyl)-1H-1,2,3-triazol-1-yl]-3'-(3,5-dimethoxy-benzamido)-1,1'-sulfanediyl-di-beta-D-galactopyranoside by fluorescence polarization assay
Mus musculus [20] = test: as §4, with “3.5” for “0.35 to 1”; format: functional, organism-based
Mus musculus [21] = test: Anti-fibrotic activity in C57/Bl6 mouse assessed as reduction in bleomycin-induced galectin-3 levels in bronchoalveolar lavage fluid at 0.35 mg/kg administered intratracheally as 4 doses every 48 hrs commencing on day 18 of bleomycin induction measured on day 26 post last dose by ELISA; format: functional; parameters: scale not given: the % may be the effect or the level left

Sequence of Galectin-3 (Homo sapiens, UniProt P17931) (P17931 whole entry): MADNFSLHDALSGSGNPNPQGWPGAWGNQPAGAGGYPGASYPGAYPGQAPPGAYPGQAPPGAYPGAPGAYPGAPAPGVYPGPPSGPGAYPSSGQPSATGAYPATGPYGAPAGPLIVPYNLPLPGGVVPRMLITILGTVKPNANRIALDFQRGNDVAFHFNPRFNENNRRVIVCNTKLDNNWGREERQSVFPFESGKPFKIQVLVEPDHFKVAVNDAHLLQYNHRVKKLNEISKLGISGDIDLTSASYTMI
T3 sequence (O00182 whole entry): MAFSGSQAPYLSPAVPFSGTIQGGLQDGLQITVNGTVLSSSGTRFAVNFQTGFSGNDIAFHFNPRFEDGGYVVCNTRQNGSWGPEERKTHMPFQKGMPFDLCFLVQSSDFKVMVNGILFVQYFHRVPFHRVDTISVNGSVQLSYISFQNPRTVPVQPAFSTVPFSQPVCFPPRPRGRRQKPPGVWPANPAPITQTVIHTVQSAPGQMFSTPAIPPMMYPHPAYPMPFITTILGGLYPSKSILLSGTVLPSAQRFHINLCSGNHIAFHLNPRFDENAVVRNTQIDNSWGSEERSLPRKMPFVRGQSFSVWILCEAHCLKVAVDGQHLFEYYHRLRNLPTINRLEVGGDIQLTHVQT
Sequence of Galectin-1 (P09382 whole entry): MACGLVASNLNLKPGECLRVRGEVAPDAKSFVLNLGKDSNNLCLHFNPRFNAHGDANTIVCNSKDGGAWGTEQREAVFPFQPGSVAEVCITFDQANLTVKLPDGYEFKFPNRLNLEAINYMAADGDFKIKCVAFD
Sequence of Galectin-3 (Homo sapiens, UniProt P17931, K176L) (P17931 2-250 K176L limits assumed): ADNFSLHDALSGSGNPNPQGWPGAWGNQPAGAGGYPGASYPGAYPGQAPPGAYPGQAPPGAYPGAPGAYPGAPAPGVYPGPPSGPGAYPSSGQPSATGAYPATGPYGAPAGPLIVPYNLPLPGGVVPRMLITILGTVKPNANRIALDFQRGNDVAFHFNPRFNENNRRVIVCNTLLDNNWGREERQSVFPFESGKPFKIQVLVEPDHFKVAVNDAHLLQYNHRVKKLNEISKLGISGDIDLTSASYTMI
Sequence of Galectin-3 (Homo sapiens, UniProt P17931, R186S) (P17931 2-250 R186S limits assumed): as the sequence (P17931 2-250 K176L limits assumed) above, with L175K, R185S counted along it
Sequence of Galectin-3 (Homo sapiens, UniProt P17931, R186K) (P17931 2-250 R186K limits assumed): as the sequence (P17931 2-250 K176L limits assumed) above, with L175K, R185K counted along it
Sequence of Galectin-3 (Homo sapiens, UniProt P17931, R144S) (P17931 2-250 R144S limits assumed): as the sequence (P17931 2-250 K176L limits assumed) above, with R143S, L175K counted along it
Sequence of Galectin-3 (Homo sapiens, UniProt P17931, R144K) (P17931 2-250 R144K limits assumed): as the sequence (P17931 2-250 K176L limits assumed) above, with R143K, L175K counted along it

Kd (Galectin-3 [1])	Kd (Galectin-8)	Kd (Galectin-4 [2])	Kd (Galectin-4 [3])	solubility [5]	Kd (Galectin-9 [6])	Kd (Galectin-7)	Kd (Galectin-1)	SMILES	also measured
0.19 µM	84 µM	140 µM	> 500 µM	Soluble	8.3 µM	34 µM		COc1ccc2cc(CO[C@H]3[C@@H](O)[C@@H](CO)O[C@@H](S[C@@H]4O[C@H](CO)[C@H](O)[C@H](OCc5cc6ccc(OC)cc6oc5=O)[C@H]4O)[C@@H]3O)c(=O)oc2c1	Kd (Galectin-9 [4]): 45 µM
0.091 µM		41 µM	210 µM	Soluble	1.6 µM	5 µM	16 µM	O=c1oc2ccccc2cc1CO[C@H]1[C@@H](O)[C@@H](CO)O[C@@H](S[C@@H]2O[C@H](CO)[C@H](O)[C@H](OCc3cc4ccccc4oc3=O)[C@H]2O)[C@@H]1O	Activity (Mus musculus [7]): inactive; Kd (Galectin-2): 6.9 µM; Kd (Galectin-3 [8]): 110 µM; Kd (Galectin-3 [9]): 50 µM; Activity (Mus musculus [10]): inactive; Kd (Galectin-3 [11]): 3 µM; Activity (Mus musculus [12]): inactive; Activity (Mus musculus [13]): inactive; Activity (Mus musculus [14]): Active; Kd (Galectin-3 [15]): 0.27 µM; Activity (Mus musculus [16]): 66%; Activity (Mus musculus [17]): inactive; Activity (Mus musculus [18]): 58%; Kd (Galectin-3 [19]): 6.1 µM; Activity (Mus musculus [20]): Active; Activity (Mus musculus [21]): 49%
1.4 µM	71 µM			Soluble	140 µM	60 µM	21 µM	O=c1oc2ccc(Cl)cc2cc1CO[C@H]1[C@@H](O)[C@@H](CO)O[C@@H](S[C@@H]2O[C@H](CO)[C@H](O)[C@H](OCc3cc4cc(Cl)ccc4oc3=O)[C@H]2O)[C@@H]1O	
0.16 µM						1.7 µM		O=C(N[C@H]1[C@@H](O)[C@@H](CO)O[C@@H](S[C@@H]2O[C@H](CO)[C@H](O)[C@H](NC(=O)c3ccc4ccccc4c3)[C@H]2O)[C@@H]1O)c1ccc2ccccc2c1	
